Measured values: patent publication US20240374581A1, “SALT TYPES OF TRICYCLIC TETRAHYDRO ISOQUINOLINE DERIVATIVE” (JIANGSU HENGRUI PHARMACEUTICALS CO., LTD., priority 2021, published 2024)

Assays:
[1] = target: CYP3A4 (Homo sapiens (Human), UniProt P08684); assay: Time-dependent inhibition of site of metabolism of midazolam in human liver microsome CYP3A4; format: in vitro ADME
Protocol: • 1. Phosphate buffer (20×PBS, purchased from Sangon); • 2. NADPH (ACROS, A2646-71-1); • 3. Human liver microsome (Corning Gentest, Cat No. 452161, Lot No. 9050002, Donor, 36); • 4. ABI QTrap 4000 LC-MS System (AB Sciex); • 5. ZORBAX Extend-C18, 3×50 mm, 3.5 m (Agilent, USA); • 6. CYP probe substrate (midazolam, TRC, M343000/3 μM) and positive control inhibitor (verapamil, Adamas Reagent Co., Ltd, Cat No. 25904A).
A 100 mM PBS buffer was prepared. A 0.25 mg/mL microsome solution, a 7.5 mM MgCl2 and a 5 mM NADPH solution were prepared using the buffer. A 30 mM stock solution was diluted with DMSO to obtain 30 mM, 10 mM, 3 mM, 1 mM, 0.3 mM, 0.1 mM, 0.03 mM and 0 mM serial solutions I, which were further diluted 200-fold with phosphate buffer (PBS) to obtain serial test solutions II (150, 50, 15, 5, 1.5, 0.5, 0.15 and 0 μM). A midazolam working solution was diluted with PBS to 15 μM.
The serial test solutions prepared above were well mixed by shaking and aliquoted in 20 μL portions into corresponding reaction plates (+NADPH, T0 and -NADPH groups were set). Three parallel tests were set. 40 μL of the liver microsome working solution was added to each 96-well plate. 20 μL of a corresponding substrate solution was added to the TO plate. 20 μL of NADPH was added to the TO plate and +NADPH group. A timer was started, and the plates were incubated in a water bath at 37° C. After 30 min of incubation, the TO plate was taken out, and the reaction was terminated with 250 μL of an internal standard-containing ACN solution. The +NADPH group was supplemented with 20 μL of the corresponding substrate solution, and the −NADPH group was supplemented with 20 μL of the corresponding substrate solution and […]. A timer was started, and the plates were incubated in a water bath at 37° C. After 30 min of incubation, the plates were taken out, and the reactions were terminated with 250 μL of an internal standard-containing ACN solution. […]
The IC50 value of the drug for the site of metabolism of midazolam in CYP3A4 was calculated by Graphpad Prism and is shown in Table 7.

[2] = target: ER (estrogen receptor) (Homo sapiens (Human), UniProt P03372); assay: Inhibition of binding of E to ER (MCF-7/ERE-luciferase reporter); format: cell-based; conditions: MCF-7/ERE-luciferase cells, 0.1 nM estradiol, 24 h; read-out: IC50, inhibitory effect on the binding of E to ER
Protocol: The compound of the present disclosure can inhibit the binding of E (estrogen) to ER (estrogen receptor), thereby blocking the binding of the complex of E and ER to ERE (estrogen response element), and consequently the expression of downstream luciferase proteins. The inhibitory effect of the compound of the present disclosure on the binding of E to ER was tested by using the following method.
An ERE was cloned upstream of the luciferase gene, and MCF-7/ERE-luciferase monoclonal cells were selected by transfection of MCF-7 (TCHu74, National Collection of Authenticated Cell Cultures). The MCF-7/ERE-luciferase cells were seeded into a 96-well plate with an MEM (hyclone, SH30024.01B) medium containing 10% charcoal stripped FBS (Moregate, FBSF), 1% sodium pyruvate (sigma, S8636), 1% non-essential amino acids (sigma, M7145) and 500 μg/mL G418 at a density of 30,000 cells/well and cultured at 37° C. with 5% CO2. […] The plate was let stand at room temperature in the dark for 10-15 min, and the chemiluminescence signal value was determined.
The inhibitory effect of the compound of the present disclosure on the binding of E to ER was determined through the above experiment. The chemiluminescence signal value was analyzed against the compound concentration (in log form) using Graphpad Prism, and the IC50 value of the compound was obtained.

Chain of CYP3A4 (P08684 whole entry): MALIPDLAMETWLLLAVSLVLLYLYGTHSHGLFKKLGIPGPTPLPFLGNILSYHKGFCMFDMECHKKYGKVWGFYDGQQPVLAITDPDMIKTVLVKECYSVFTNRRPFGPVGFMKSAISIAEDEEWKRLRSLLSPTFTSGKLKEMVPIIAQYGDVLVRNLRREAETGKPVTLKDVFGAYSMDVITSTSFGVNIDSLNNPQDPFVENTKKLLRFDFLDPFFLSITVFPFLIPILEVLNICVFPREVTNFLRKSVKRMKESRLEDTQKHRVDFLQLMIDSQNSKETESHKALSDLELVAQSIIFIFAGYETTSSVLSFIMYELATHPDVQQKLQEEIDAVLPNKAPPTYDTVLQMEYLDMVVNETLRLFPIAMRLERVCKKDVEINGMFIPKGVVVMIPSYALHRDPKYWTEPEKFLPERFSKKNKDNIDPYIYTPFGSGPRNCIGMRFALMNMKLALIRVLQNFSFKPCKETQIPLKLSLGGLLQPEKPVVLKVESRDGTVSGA
Chain of ER (estrogen receptor) (P03372 whole entry): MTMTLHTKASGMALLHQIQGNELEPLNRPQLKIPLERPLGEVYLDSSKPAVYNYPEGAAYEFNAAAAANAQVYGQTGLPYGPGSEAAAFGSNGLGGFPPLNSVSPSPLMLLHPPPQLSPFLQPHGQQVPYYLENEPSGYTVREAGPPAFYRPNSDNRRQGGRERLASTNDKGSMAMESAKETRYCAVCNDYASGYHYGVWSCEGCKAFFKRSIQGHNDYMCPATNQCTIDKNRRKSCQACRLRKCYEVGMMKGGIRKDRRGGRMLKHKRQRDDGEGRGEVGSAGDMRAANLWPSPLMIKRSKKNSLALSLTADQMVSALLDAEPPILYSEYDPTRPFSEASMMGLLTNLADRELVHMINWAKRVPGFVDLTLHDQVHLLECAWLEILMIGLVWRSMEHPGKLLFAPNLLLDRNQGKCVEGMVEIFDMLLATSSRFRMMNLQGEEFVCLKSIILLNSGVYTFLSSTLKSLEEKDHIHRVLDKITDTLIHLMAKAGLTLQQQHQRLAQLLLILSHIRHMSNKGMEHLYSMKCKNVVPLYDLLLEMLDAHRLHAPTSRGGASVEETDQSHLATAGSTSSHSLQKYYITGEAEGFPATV

## [2H]C1([2H])Oc2cc3c(cc2O1)[C@@H](c1ccc(NC2CN(CCCF)C2)cn1)N(CC(F)(F)CO)[C@H](C)C3 [Compound 1, 2,2-Difluoro-3-((5S,7R)-5-(5-((1-(3-fluoropropyl)azetidin-3-yl)amino)pyridin-2-yl)-7-methyl-7,8-dihydro-[1,3]dioxolo[4,5-g]isoquinolin-6(5H)-yl-2,2-d2)propan-1-ol]
[1]; human, microsomes
  IC50 shift at 30 min: 0.7
[1]; pre-incubation with NADPH 30 min
  IC50: 13.1 µM
[1]; pre-incubation without NADPH
  IC50: 19.6 µM
[2]
  IC50: 0.00069 µM
